From ChEMBL document CHEMBL3525988, “Delayed elimination of SN-38 in cancer patients with severe renal failure” (Drug Metab Dispos, 2011) come the findings set out here.

A short description of data set [1]: Terminal elimination rate constant in cancer patient with severe renal failure administered as infusion after 0.25 to 1.5 hrs by RP-HPLC analysis. Also on record: dosed compound name Irinotecan. Particulars: human, in vivo, iv; read-out: k_elim (converted). Format: ADME, organism-based.
Data set [2] in a line: Terminal elimination rate constant in cancer patient normal renal function administered as infusion after 0.25 to 1.5 hrs by RP-HPLC analysis. Format: ADME, organism-based. The arrangement: dosed compound name Irinotecan. The settings on record: human, in vivo, iv; read-out: k_elim (converted).

Structures are written as SMILES.

Turning to `CCc1c2c(nc3ccc(O[C@@H]4O[C@H](C(=O)O)[C@@H](O)[C@H](O)[C@H]4O)cc13)-c1cc3c(c(=O)n1C2)COC(=O)[C@]3(O)CC`, the k el in data set [1] is 8.61e-06 s⁻¹; in data set [2] it was 1.7e-05 s⁻¹.
For `CCc1c2c(nc3ccc(O)cc13)-c1cc3c(c(=O)n1C2)COC(=O)[C@]3(O)CC` [7-ETHYL-10-HYDROXYCAMPTOTHECIN], in that order: 2.34e-06 s⁻¹ and 2.26e-05 s⁻¹.
For `CCc1c2c(nc3ccc(OC(=O)N4CCC(N5CCCCC5)CC4)cc13)-c1cc3c(c(=O)n1C2)COC(=O)[C@]3(O)CC` [IRINOTECAN], in that order: 2.81e-05 s⁻¹ and 3.33e-05 s⁻¹.
